pIC50: −log10 of the molar value. Values joined by “and” are separate entries in the source; they are usually repeats but may differ in a detail not shown here. Equal entries are not always repeated. “Also recorded” adds a separate entry of the source. Where two headings read alike, the source gives them in different places.

We go through 2 compounds from patent US9820967B2 (priority 2014, dated 2017).

The subject of data set [1] is efflux pump (EPI functionality). Kind of data set: EPI functionality assays of authentic standard. It counts as cell-based, Escherichia coli. The source says:
Moreover, this “halogenome” appeared to be dominated by brominated metabolites, with only some metabolites (<10) that were additionally chlorinated. […] Relative concentrations of halogenated compounds from clade IV appeared different even within members of the same species, indicative of intraspecies chemical diversity and further subclustering among isolates of the same species (A757, A754, A746, and B149), a phenomenon previously described for P. luteoviolacea strains. […] The presence of 2,3,4-tribromopyrrole was also determined (retention time 20.1 min, major ion m/z 301.7639), which was present in A757, A754, and A746, but not in B149. […]
(§1) To truly be considered an efflux pump inhibitor (EPI), the compound must increase the level of accumulation and decrease the level of extrusion of efflux pump substrates. The fluorescent DNA-binding dye Hoechst 33342 (H33342) a known substrate for RND pumps, is easily detected in the cell, can freely permeate the outer membrane, and can act as a reporter, all allowing for quantification of transport across living cells. Efflux-competent cells extrude H33342 and accumulate dye at a relatively slow rate, resulting in low levels of background fluorescence. Conversely, efflux-defective cells (e.g., presence of EPI) accumulate intracellular levels of H33342 at a higher rate, resulting in fluorescence retention. […]

For another data set, the system named is fungi. To be noted: Tsukamoto et al. (2001); cited from earlier work.
In data set [2] the target is wild-type E. coli AG100 expressing the AcrAB-TolC pump (Escherichia coli, UniProt P31224). It is filed as cell-based.
Sequence of wild-type E. coli AG100 expressing the AcrAB-TolC pump (P31224 whole entry): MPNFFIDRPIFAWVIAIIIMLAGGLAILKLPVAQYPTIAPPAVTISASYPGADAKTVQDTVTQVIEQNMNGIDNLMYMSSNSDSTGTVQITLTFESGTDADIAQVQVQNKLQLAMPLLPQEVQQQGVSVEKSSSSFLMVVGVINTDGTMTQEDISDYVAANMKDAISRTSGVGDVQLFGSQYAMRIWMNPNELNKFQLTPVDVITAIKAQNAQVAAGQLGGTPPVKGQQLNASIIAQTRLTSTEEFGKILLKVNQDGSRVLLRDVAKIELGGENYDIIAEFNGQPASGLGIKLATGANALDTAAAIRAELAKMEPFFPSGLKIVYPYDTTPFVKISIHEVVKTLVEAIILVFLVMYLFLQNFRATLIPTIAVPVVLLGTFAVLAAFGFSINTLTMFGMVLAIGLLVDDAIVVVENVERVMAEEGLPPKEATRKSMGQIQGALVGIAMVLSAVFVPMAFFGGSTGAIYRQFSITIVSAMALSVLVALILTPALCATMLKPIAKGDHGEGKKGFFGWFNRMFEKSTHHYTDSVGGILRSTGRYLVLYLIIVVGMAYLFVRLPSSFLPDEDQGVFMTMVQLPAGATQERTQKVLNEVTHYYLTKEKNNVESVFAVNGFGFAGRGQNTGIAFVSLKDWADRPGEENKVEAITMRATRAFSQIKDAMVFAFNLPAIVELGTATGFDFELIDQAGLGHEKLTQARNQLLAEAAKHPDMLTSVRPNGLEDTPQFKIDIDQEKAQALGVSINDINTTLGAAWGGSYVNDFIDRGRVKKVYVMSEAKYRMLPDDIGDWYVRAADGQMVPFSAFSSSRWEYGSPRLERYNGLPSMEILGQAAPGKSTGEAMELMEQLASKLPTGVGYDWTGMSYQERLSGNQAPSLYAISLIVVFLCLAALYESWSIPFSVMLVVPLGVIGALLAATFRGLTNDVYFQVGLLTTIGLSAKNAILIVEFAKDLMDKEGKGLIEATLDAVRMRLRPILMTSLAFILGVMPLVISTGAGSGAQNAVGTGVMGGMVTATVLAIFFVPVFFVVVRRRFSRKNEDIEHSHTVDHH
Sequence of wild-type E. coli AG100 expressing the AcrAB-TolC pump (P0AE06 25-397, further chain): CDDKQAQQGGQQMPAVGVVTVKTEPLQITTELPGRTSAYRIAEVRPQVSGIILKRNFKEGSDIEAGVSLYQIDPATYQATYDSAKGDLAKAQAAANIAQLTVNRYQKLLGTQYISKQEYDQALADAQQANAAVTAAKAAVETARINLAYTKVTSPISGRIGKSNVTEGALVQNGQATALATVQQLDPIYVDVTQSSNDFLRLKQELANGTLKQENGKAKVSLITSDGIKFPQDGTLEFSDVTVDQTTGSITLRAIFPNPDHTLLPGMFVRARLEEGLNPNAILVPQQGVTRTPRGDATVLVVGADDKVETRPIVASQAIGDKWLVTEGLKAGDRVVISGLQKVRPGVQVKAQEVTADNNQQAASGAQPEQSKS
Sequence of wild-type E. coli AG100 expressing the AcrAB-TolC pump (P02930 23-493, further chain): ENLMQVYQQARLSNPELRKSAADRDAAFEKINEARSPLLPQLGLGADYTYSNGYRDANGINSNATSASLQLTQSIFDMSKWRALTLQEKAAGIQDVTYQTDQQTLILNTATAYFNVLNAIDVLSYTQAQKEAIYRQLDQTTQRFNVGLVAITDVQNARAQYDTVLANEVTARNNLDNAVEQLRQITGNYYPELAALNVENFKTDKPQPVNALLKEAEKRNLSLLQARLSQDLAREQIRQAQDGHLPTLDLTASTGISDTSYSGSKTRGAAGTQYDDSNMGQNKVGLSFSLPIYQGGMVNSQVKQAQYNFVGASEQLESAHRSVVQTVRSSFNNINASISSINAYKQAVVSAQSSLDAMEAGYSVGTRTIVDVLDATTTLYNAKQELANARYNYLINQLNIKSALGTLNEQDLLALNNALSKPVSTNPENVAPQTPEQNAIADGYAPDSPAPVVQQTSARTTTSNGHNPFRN
Description: (§2) Upon entering the bacterial cell, H33342 becomes fluorescent once bound to the DNA minor groove.
as §1
(§3) For accumulation assays, in efflux-competent cells such as AG100, H33342 would be extruded resulting in low levels of background fluorescence, while the presence of a putative EPI would cause intracellular H33342 accumulation. […] Fluorescence values for wells containing media and compounds only were subtracted from those containing bacteria to control for any background fluorescence due to the presence of test compounds. […]

The test system of data set [3] is murine lymphocytic leukemia cells. The conditions noted are these: cited from earlier work.
The target in data set [4] is H33342 efflux in E. coli AG100 (AcrAB-TolC) (Escherichia coli, UniProt P31224). Put plainly: Hoechst 33342 efflux assay, AG100. It is filed as cell-based. The source says:
To truly be considered an efflux pump inhibitor (EPI), the compound must increase the level of accumulation and decrease the level of extrusion of efflux pump substrates. The fluorescent DNA-binding dye Hoechst 33342 (H33342) a known substrate for RND pumps, is easily detected in the cell, can freely permeate the outer membrane, and can act as a reporter, all allowing for quantification of transport across living cells. Efflux-competent cells extrude H33342 and accumulate dye at a relatively slow rate, resulting in low levels of background fluorescence. Conversely, efflux-defective cells (e.g., presence of EPI) accumulate intracellular levels of H33342 at a higher rate, resulting in fluorescence retention. Wild-type E. coli K-12 strain, AG100, and AG100A, the ΔacrAB mutant, a generous gift from Dr. M. Viveiros (Universidad Nova de Lisboa, Portugal), were used in accumulation and efflux assays. […] All experiments were performed in duplicate. Heat-inactivated bacteria were used as a positive control to assess maximal dye accumulation.

The subject of data set [5] is E. coli strains overexpressing efflux pumps (AG102, MG1655 ΔBC/pABM, MG1655 ΔBC/pXYM; AcrAB-TolC, MexAB-OprM, MexXY-OprM). It is filed as cell-based, Escherichia coli.
Description: The checkerboard assay was used to determine whether 3,4-dibromopyrrole-2,5-dione potentiates the activity of two fluoroquinolones (ciprofloxacin (CIP) and levofloxacin (LEV)), an aminoglycoside (kanamycin (KAN)), a macrolide (erythromycin (ERY)), two β-lactams (oxacillin (OXA) and piperacillin (PIP)), tetracycline (TET), and chloramphenicol (CHL), known substrates for resistance nodulation cell division pump (RND) transporters, against test strains of multidrug resistant (MDR) E. coli. Interactions between 3,4-dibromopyrrole-2,5-dione and various antibiotics were classified based upon the fractional inhibitory concentration index (FICI), where a FIC of <0.5 is synergistic and indicative of the presence of an efflux pump inhibitor (EPI); 0.5-1 is indifferent; and >1 is antagonistic. […]
Bacterial susceptibility of extracts were tested in duplicate at 1 mg/mL and determined by rapid p-iodonitrotetrazolium chloride colorimetric assay in 96-well microtiter plates in a final volume of 200 μL as previously described (Kuete (2010), Antimicrob. Agents Chemother., 54, 1749-1752). […]
To assess the interaction between different classes of antibiotics and 3,4-dibromopyrrole-2,5-dione, standard checkerboard assays were performed in which the minimum inhibitory concentrations (MICs) of antibiotics were determined in the presence of different concentrations of 3,4-dibromopyrrole-2,5-dione. […]
Data set [6] relates to E. coli mutant AG100A (ΔacrAB), lacking the pump. It counts as cell-based, Escherichia coli. To be noted: transporter deficient.
Description: as §2, §1, §3

Sequence of H33342 efflux in E. coli AG100 (AcrAB-TolC) (P31224 whole entry): as the sequence (P31224 whole entry) above
Sequence of H33342 efflux in E. coli AG100 (AcrAB-TolC) (P0AE06 25-397, further chain): as the sequence (P0AE06 25-397, further chain) above
Sequence of H33342 efflux in E. coli AG100 (AcrAB-TolC) (P02930 23-493, further chain): as the sequence (P02930 23-493, further chain) above

As to `Brc1[nH]c(Br)c(Br)c1Br` [2,3,4,5-tetrabromopyrrole], in data set [1], the “EPI activity of authentic standard” value is reported as “not to be responsible for the EPI activity”.

As usually defined, the pIC50 is −log10 of the IC50, conventionally taken in molar units. Lower therefore signals a large IC50. Take `O=C1NC(=O)C(Br)=C1Br` [3,4-dibromopyrrole-2,5-dione]: in the data set with fungi, the antifungal activity entry is on record as “modest antifungal activity”. Also, in data set [2], the “concentration equal to or more effective than PAβN (15.6 μg/mL) in causing H33342 accumulation” value was at least 1 µg/mL and the “intracellular H33342 fluorescence (accumulation)” value is on record as “dose-dependent increase; also recorded: increased”. For the same compound, the cytotoxicity result in data set [3] is reported as “cytotoxicity”. For the same compound, in data set [4], the pIC50 is 5.51 and 5.52; the “most dilute concentration with significant (p<0.05) H33342 efflux inhibition vs solvent controls” value stood at 0.06 µg/mL. Further, the “inhibition of H33342 efflux vs control wells” value in data set [4] (0.06-64 μg/mL, glucose, 37° C.) was “near-complete inhibition”. Also, in data set [5] (all antibiotics tested with the exception of piperacillin), the “interaction by fractional inhibitory concentration index (FICI)” value is “synergistic (a FIC of <0.5 is synergistic and indicative of the presence of an efflux pump inhibitor (EPI))”. Besides, in data set [5] (all three E. coli strains overexpressing efflux pumps), the “antibacterial activity of compound alone, concentration” value was over 100 µg/mL. Further, the “effect on H33342 fluorescence (accumulation)” value in data set [6] is “no effect”. Also, the “effect on H33342 fluorescence (accumulation)” value in data set [6] (listed as 3,4-Dibromopyrrole-2,5-dione) is reported as “not”.
